Experimental data published in patent publication US20230095520A1, “PHARMACEUTICAL COMPOSITION FOR PREVENTING OR TREATING CANCER COMPRISING AZOLE DERIVATIVES OR PHARMACEUTICALLY ACCEPTABLE SALT THEREOF” (Yungjin Pharm. Co., Ltd., priority 2020, published 2023).

Tests used:
Assay in all cases: Cancer cell proliferation GI50 (CCK-8)
Format in all cases: cell-based
[1] = tested on: A549; conditions: Homo sapiens, A549, lung cancer, 72 hours
Description: (§1) In this example, in order to confirm the proliferation inhibitory effect on various cancer cells, Compound 121 was tested as follows.
(§2) The cells were cultured with a culture medium shown in Table 9 below at 37° C. in a humidified condition in the presence of 5% CO2. Each cell cultured in a 96-well cell culture plate was treated with the compound of the present invention and cultured for 72 hours.

[2] = tested on: BDCM; conditions: acute myeloid leukemia, 72 hours
Description: as §1, §2

[3] = tested on: BxPC-3; conditions: Homo sapiens, BxPC-3, pancreatic cancer, 72 hours
Description: as §1, §2

[4] = tested on: CCRF-CEM; conditions: Homo sapiens, acute lymphocytic leukemia, 72 hours
Description: as §1, §2

[5] = tested on: DAUDI; conditions: Homo sapiens, Burkitt lymphoma, 72 hours
Description: as §1, §2

[6] = tested on: DU145; conditions: Homo sapiens, DU-145, DU145, prostate cancer, 72 hours
Description: as §1, §2

[7] = tested on: HCC1937; conditions: Homo sapiens, HCC1937, breast cancer, 72 hours
Description: as §1, §2

[8] = tested on: HCC70; conditions: Homo sapiens, HCC70, breast cancer, 72 hours
Description: as §1, §2

[9] = tested on: HCT116; conditions: Homo sapiens, HCT-116, HCT116, large intestine cancer, 72 hours
Description: as §1, §2

[10] = tested on: HeLa; conditions: Homo sapiens, cervical cancer, 72 hours
Description: as §1, §2

[11] = tested on: K562; conditions: Homo sapiens, K562, chronic myeloid leukemia (CML), 72 hours
Description: as §1, §2

[12] = tested on: KASUMI-2; conditions: KASUMI-2, B cell acute lymphocytic leukemia, 72 hours
Description: as §1, §2

[13] = tested on: KG-1; conditions: Homo sapiens, KG-1, acute myeloid leukemia, 72 hours
Description: as §1, §2

[14] = tested on: KU-812; conditions: Homo sapiens, KU812, KU-812, chronic myeloid leukemia, 72 hours
Description: as §1, §2

[15] = tested on: LNCaP; conditions: Homo sapiens, prostate cancer, 72 hours
Description: as §1, §2

[16] = tested on: MCF-7; conditions: Homo sapiens, MCF7, MCF-7, breast cancer, 72 hours
Description: as §1, §2

[17] = tested on: MEG-01; conditions: Homo sapiens, MEG-01, chronic myeloid leukemia, 72 hours
Description: as §1, §2

[18] = tested on: MOLM-13; conditions: Homo sapiens, MOLM-13, acute myeloid leukemia (AML), 72 hours
Description: as §1, §2

[19] = tested on: MOLM-14; conditions: Homo sapiens, MOLM-14, acute myeloid leukemia, 72 hours
Description: as §1, §2

[20] = tested on: MOLM/AZA-1; conditions: MOLM/AZA-1, acute myeloid leukemia, 72 hours
Description: as §1, §2

[21] = tested on: MOLM/CYT; conditions: acute myeloid leukemia, 72 hours
Description: as §1, §2

[22] = tested on: MOLM/DEC-5; conditions: MOLM/DEC-5, acute myeloid leukemia, 72 hours
Description: as §1, §2

[23] = tested on: MOLT4; conditions: Homo sapiens, MOLT-4, MOLT4, acute lymphocytic leukemia, 72 hours
Description: as §1, §2

[24] = tested on: MV-4-11; conditions: Homo sapiens, MV4-11, MV-4-11, acute myeloid leukemia, 72 hours
Description: as §1, §2

[25] = tested on: NALM-20; conditions: NALM-20, B cell acute lymphocytic leukemia, 72 hours
Description: as §1, §2

[26] = tested on: NB4; conditions: Homo sapiens, NB-4, NB4, acute promyelocytic leukemia, 72 hours
Description: as §1, §2

[27] = tested on: OVCAR-3; conditions: Homo sapiens, OVCAR-3, ovarian cancer, 72 hours
Description: as §1, §2

[28] = tested on: RCH-ACV; conditions: B cell acute lymphocytic leukemia, 72 hours
Description: as §1, §2

[29] = tested on: RPMI-8226; conditions: Homo sapiens, RPMI-8226, multiple myeloma, 72 hours
Description: as §1, §2

[30] = tested on: SK-BR-3; conditions: Homo sapiens, SK-BR-3, breast cancer, 72 hours
Description: as §1, §2

[31] = tested on: SKM-1; conditions: Homo sapiens, SKM-1, acute myeloid leukemia, 72 hours
Description: as §1, §2

[32] = tested on: SKOV-3; conditions: Homo sapiens, SK-OV-3, SKOV-3, ovarian cancer, 72 hours
Description: as §1, §2

[33] = tested on: SR; conditions: Homo sapiens, immunoblastic large cell lymphoma, 72 hours
Description: as §1, §2

[34] = tested on: T47D; conditions: Homo sapiens, breast cancer, 72 hours
Description: as §1, §2

[35] = tested on: THP-1; conditions: Homo sapiens, THP-1, acute myeloid leukemia, 72 hours
Description: as §1, §2

[36] = tested on: THP/DEC-2; conditions: THP/DEC-2, acute myeloid leukemia, 72 hours
Description: as §1, §2

[37] = tested on: U937; conditions: Homo sapiens, U-937, U937, acute myeloid leukemia, 72 hours
Description: as §1, §2

GI50 [1]: 8.6 nM
GI50 [2]: 2.68 nM
GI50 [3]: 6.7 nM
GI50 [4]: 15.6 nM
GI50 [5]: 9.15 nM
GI50 [6]: 11.5 nM
GI50 [7]: 14.6 nM
GI50 [9]: 4 nM
GI50 [10]: 10.8 nM
GI50 [11]: 18.9 nM
GI50 [12]: 6.26 nM
GI50 [13]: 29 nM
GI50 [14]: 3.64 nM
GI50 [15]: 8 nM
GI50 [16]: 15.1 nM
GI50 [17]: 4 nM
GI50 [18]: 19 nM
GI50 [19]: 2.77 nM
GI50 [20]: 13.2 nM
GI50 [21]: 0.94 nM
GI50 [22]: 14.9 nM
GI50 [23]: 4.51 nM
GI50 [24]: 11.8 nM
GI50 [25]: 18.6 nM
GI50 [26]: 12.9 nM
GI50 [27]: 4.8 nM
GI50 [28]: 4.1 nM
GI50 [29]: 16.4 nM
GI50 [30]: 10.6 nM
GI50 [31]: 25 nM
GI50 [32]: 9.6 nM
GI50 [33]: 5.83 nM
GI50 [34]: 19.3 nM
GI50 [35]: 1.95 nM
GI50 [36]: 3.6 nM
GI50 [37]: 2.43 nM
Structure (SMILES): CCc1cnc(NC(=O)[C@@H](C)c2cccc(-c3cnc(NC(=O)/C=C/CN(C)C)c(C#N)c3)c2)s1 [Compound 121, (S,E)-N-(3-cyano-5-(3-(1-((5-ethylthiazol-2-yl)amino)-1-oxopropan-2-yl)phenyl)pyridin-2-yl)-4-(dimethylamino)but-2-enamide]
GI50 [8]: 11.2 nM
